Values quoted from earlier work as cited in US9555003B2, “Oral solid formulation of compound anti-tubercular drug and preparation method thereof” (priority 2011, dated 2017).
≈ marks a conversion by molar mass, not a printed value.

How the values were obtained:
[1] = not given; remark: listed apart in the source
[2] = test system: tubercle bacillus

Compound | solubility in water | solubility in ethanol | solubility in ethyl ether | Vd ([1]; in vivo) [L/kg] | protein binding rate ([1]; in vivo) | oral absorption rate ([1]; oral) [%] | time to peak serum drug concentration after administration ([1]; oral) [h] | intra-cellular concentration for inhibiting tubercle bacillus relative to extracellular concentration ([2]; folds lower than the extracellular concentration) [folds] | concentration at which tubercle bacillus is eliminated ([2]; tubercle bacillus) [µg/mL] | minimum inhibitory concentration ([2]; tubercle bacillus) [µg/mL]
CC[C@H](CO)NCCN[C@H](CC)CO.Cl.Cl [Ethambutol hydrochloride] | easily soluble | – | – | – | – | – | – | – | – | –
NNC(=O)c1ccncc1 [Isoniazid, 4-pyridylcarbonylhydrazine] | easily soluble | slightly soluble | very slightly soluble | 0.61 ± 0.11 | very low | 90 | 1 to 2 | – | – | –
NC(=O)c1cnccn1 [Pyrazinamide] | slightly soluble | slightly soluble | very slightly soluble | – | – | – | – | 10 | 50 | 12.5 (≈ 102 µM)
CO[C@H]1/C=C/O[C@@]2(C)Oc3c(C)c(O)c4c(O)c(c(/C=N/N5CCN(C)CC5)c(O)c4c3C2=O)NC(=O)/C(C)=C\C=C\[C@H](C)[C@H](O)[C@@H](C)[C@@H](O)[C@@H](C)[C@H](OC(C)=O)[C@@H]1C [Rifampicin] | poorly soluble | – | – | – | – | – | – | – | – | –
